Data published in article PMC9355146, “Novel angiotensin-converting enzyme inhibitory peptides from tuna byproducts—milts: Preparation, characterization, molecular docking study, and antioxidant function on H2O2-damaged human umbilical vein endothelial cells” (Frontiers in Nutrition, 2022).
Read-outs that look alike come from different tables or passages of the source. Where a SMILES comes first, the peptide text is derived from it.

Columns and labels:
ACE = ACE (Oryctolagus cuniculus, UniProt G1TYT4); conditions: cited from earlier work
H2O2-damaged HUVECs [1] = assay type: cell-based, human
Description: The cytotoxic assay was carried out as per the previous method ([54]). […] Then, 20 μL MTT solution (5 mg/mL) was put in and incubated for 4 h. In the end, DMSO was joined in each well plate, and the absorbance (A) at 490 nm was determined. Cell viability(%)= (Asample/Acontrol) × 100. The cytoprotective assay was carried out using the described methods ([55], [56]). In short, HUVECs were cultured in a 96-well plate at a density of 1 × 10^4 cells/cm^2 for 24 h. […] GSH was used as the positive control.

H2O2-damaged HUVECs [2] = assay: MDA level in H2O2-damaged HUVECs; assay type: cell-based, human; conditions: then H2O2 400 μM for 24 h, mean ± SD, n = 3
Description: (§1) The cytoprotective assay was carried out using the described methods ([55], [56]). In short, HUVECs were cultured in a 96-well plate at a density of 1 × 10^4 cells/cm^2 for 24 h. Afterward, the supernatant was aspirated, and 20 μL of ACEi peptides (TP6, TP7, and TP10) with the final concentrations of 100 and 200 μM were added to the protection groups, respectively. […] GSH was used as the positive control.
(§2) The level of ROS was determined on the method described by Cai et al. ([55]) and expressed as % of blank control; the levels of MDA, SOD, and GSH-Px were measured using assay kits in accordance with the manufacturer' protocols and expressed as U/mg prot.

HUVECs [3] = assay: Nitric oxide (NO) production in HUVECs; assay type: cell-based, human; conditions: 24 h, mean ± SD, n = 3
Description: (§3) HUVECs were cultured in 96-well plates at a density of 1 × 10^4 cells/cm^2 and treated with Cap (1 μM), NE (0.5 μM), or ACEi peptides (100–200 μM) for 24 h, or incubated with both NE (0.5 μM) and 200 μM ACEi peptides for 24 h. NO and ET-1 contents of HUVECs were determined after 24 h according to the NO and ET-1 assay kits as manufactures' protocol ([54]).

HUVECs [4] = assay: Endothelin-1 (ET-1) secretion in HUVECs; assay type: cell-based, human; conditions: 24 h, mean ± SD, n = 3
Description: as §3

HUVECs [5] = assay: Cytotoxic assay (MTT) on HUVECs; assay type: cell-based, human; conditions: 50–200 μM, 24 h
Description: The cytotoxic assay was carried out as per the previous method ([54]). HUVECs were cultured at a density of 1 × 10^4 cells/cm^2 to confluence in DMEM at 37°C in a humidified 5% CO2 atmosphere ([8]). The cytotoxicity of TP1–TP10 on HUVECs was measured using MTT assay ([8]). In short, HUVECs in 96-well plates at a density of 1 × 10^4 cells/cm^2 were separately treated with 20 μL samples at 50 and 200 μM, respectively, and cultured for 24 h. Then, 20 μL MTT solution (5 mg/mL) was put in and incubated for 4 h. In the end, DMSO was joined in each well plate, and the absorbance (A) at 490 nm was determined.
Cell viability(%)= (Asample/Acontrol) × 100.

H2O2-damaged HUVECs [6] = assay: SOD level in H2O2-damaged HUVECs; assay type: cell-based, human; conditions: then H2O2 400 μM for 24 h, mean ± SD, n = 3
Description: as §1, §2

H2O2-damaged HUVECs [7] = assay: GSH-Px level in H2O2-damaged HUVECs; assay type: cell-based, human; conditions: then H2O2 400 μM for 24 h, mean ± SD, n = 3
Description: as §1, §2

[8] = target: T1, Angiotensin-converting enzyme (ACE) (UniProt P12822)
T1 sequence: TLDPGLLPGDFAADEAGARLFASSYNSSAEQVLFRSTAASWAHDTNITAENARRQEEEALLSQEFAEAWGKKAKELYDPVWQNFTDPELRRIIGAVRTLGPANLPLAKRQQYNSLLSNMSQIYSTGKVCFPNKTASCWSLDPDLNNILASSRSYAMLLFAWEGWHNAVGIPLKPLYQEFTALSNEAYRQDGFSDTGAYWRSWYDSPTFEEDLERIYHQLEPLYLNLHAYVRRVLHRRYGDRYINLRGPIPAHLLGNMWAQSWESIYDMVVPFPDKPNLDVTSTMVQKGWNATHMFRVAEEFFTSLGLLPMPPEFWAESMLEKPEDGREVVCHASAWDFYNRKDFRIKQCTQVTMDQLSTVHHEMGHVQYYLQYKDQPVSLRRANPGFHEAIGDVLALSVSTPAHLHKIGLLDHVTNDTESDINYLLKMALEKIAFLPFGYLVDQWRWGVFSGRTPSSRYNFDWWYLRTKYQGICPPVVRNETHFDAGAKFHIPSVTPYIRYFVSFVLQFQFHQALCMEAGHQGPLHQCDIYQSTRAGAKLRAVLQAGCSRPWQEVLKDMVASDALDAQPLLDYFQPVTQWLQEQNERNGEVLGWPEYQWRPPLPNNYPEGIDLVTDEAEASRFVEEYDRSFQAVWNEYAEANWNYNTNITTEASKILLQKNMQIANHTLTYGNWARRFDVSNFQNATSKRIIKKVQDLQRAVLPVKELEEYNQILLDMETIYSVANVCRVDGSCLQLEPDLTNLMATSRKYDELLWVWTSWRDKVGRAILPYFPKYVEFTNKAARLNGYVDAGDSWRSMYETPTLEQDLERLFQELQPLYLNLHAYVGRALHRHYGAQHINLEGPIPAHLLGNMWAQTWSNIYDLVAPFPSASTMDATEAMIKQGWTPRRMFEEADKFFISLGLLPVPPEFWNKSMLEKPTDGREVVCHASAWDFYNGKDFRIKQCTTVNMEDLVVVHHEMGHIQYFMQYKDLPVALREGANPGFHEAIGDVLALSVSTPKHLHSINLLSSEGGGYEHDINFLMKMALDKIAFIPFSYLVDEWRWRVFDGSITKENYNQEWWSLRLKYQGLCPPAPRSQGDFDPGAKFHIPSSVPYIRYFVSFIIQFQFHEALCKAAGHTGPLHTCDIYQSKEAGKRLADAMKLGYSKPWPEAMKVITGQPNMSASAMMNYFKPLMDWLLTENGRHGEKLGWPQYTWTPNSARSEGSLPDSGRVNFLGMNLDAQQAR

[9] = NE 0.5 μM together with peptide 200 μM

Sequence of ACE (G1TYT4 1-1284): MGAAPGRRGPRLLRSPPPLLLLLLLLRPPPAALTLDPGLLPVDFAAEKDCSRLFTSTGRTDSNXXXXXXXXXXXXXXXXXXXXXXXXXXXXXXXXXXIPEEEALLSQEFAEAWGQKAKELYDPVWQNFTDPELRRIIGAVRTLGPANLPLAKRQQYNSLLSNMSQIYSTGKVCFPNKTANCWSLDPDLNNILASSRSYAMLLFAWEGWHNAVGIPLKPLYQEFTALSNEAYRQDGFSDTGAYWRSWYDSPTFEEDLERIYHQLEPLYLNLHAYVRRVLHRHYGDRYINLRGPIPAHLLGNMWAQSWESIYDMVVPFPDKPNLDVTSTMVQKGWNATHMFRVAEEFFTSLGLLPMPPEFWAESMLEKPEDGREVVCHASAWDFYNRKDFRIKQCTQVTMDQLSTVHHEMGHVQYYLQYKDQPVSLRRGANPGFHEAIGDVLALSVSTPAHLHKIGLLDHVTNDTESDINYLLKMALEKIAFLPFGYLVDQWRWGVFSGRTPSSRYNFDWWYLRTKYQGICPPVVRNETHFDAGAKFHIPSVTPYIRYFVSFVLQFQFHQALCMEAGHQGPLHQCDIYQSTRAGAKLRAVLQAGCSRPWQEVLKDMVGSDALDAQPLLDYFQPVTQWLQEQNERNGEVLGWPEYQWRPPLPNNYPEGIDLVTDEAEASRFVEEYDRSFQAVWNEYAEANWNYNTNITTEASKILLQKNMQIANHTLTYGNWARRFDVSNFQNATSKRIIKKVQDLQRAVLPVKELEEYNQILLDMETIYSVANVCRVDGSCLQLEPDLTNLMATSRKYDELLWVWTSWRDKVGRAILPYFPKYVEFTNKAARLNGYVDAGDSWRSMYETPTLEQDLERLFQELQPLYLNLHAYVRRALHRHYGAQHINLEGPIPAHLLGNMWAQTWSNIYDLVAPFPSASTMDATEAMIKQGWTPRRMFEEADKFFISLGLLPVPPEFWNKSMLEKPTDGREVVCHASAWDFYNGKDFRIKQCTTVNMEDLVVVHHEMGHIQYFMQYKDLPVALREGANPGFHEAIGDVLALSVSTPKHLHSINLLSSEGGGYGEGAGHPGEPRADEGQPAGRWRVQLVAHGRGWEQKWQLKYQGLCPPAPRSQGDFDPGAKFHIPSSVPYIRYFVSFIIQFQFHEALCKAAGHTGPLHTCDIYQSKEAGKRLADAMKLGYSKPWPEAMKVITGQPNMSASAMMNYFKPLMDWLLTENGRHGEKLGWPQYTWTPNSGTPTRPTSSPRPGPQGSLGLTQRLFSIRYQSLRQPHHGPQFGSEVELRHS

For EHPVL, the “IC50 on ACE” value (ACE; ACEi peptide from stone fish) is listed as 1680 µg/mL.

For FRKE, the “IC50 on ACE” value (ACE; ACEi peptides from Antarctic krill) is given as 6970 µg/mL.

In the case of `N[C@@H](CCC(=O)N[C@@H](CS)C(=O)NCC(=O)O)C(=O)O` [GSH, glutathione, reference compound], the “cell viability of H2O2-damaged HUVECs” value (H2O2-damaged HUVECs [1]; GSH positive control (concentration not given), then H2O2 400 μM for 24 h, mean ± SD, n = 3) is reported as 75.69 ± 3.52% and the MDA level (H2O2-damaged HUVECs [2]; GSH positive control (concentration not given)) is reported as 15.28 ± 0.61 nmol/mg prot.

For `OO` [H2O2], the “cell viability of HUVECs (% of the blank group)” value (H2O2-damaged HUVECs [1]; H2O2 400 μM alone, 24 h (oxidative damage model), mean ± SD, n = 3) was 50.48 ± 1.96%.

For LGPLGHQ, the “IC50 on ACE” value (ACE; ACEi peptide from skate) is given as 4220 µg/mL.

In the case of `NC[C@H](O)c1ccc(O)c(O)c1` [NE, Norepinephrine, reference compound], the NO level (HUVECs [3]; NE 0.5 μM alone) is reported as 22.91 ± 1.26 μmol/gprot and the ET-1 secretion (HUVECs [4]; NE 0.5 μM alone) is reported as 148.35 ± 3.87 pg/mL.

With `CC[C@H](C)[C@H](N)C(=O)N[C@@H](Cc1ccc(O)cc1)C(=O)N[C@@H](CO)C(=O)N1CCC[C@H]1C(=O)O` [TP10, Ile-Tyr-Ser-Pro] (H-IYSP-OH) the “toxicity to HUVECs (in words)” value (HUVECs [5]) was “no significant toxicity”, the NO level (HUVECs [3]; [9]) was 39.27 ± 1.96 μmol/gprot and the NO level (HUVECs [3]; peptide 200 μM) was 46.78 ± 2.47 μmol/gprot. For the same molecule, the ET-1 level (HUVECs [4]; [9]) was 109.12 ± 2.95 pg/mL, the ET-1 level (HUVECs [4]; peptide 200 μM) was 96.15 ± 1.35 pg/mL and the “cell viability of H2O2-damaged HUVECs” value (H2O2-damaged HUVECs [1]; 8 h, 200 μM) was 61.58 ± 3.04%. For the same molecule, the MDA level (H2O2-damaged HUVECs [2]; peptide 200 μM for 8 h) was 19.11 ± 0.88 nmol/mg prot, the SOD level (H2O2-damaged HUVECs [6]; peptide 100 μM for 8 h) was 154.35 ± 3.68 U/mg prot and the SOD level (H2O2-damaged HUVECs [6]; peptide 200 μM for 8 h) was 172.93 ± 6.58 U/mg prot. For the same molecule, the GSH-Px level (H2O2-damaged HUVECs [7]; peptide 100 μM for 8 h) was 38.91 ± 1.17 U/mg prot and the GSH-Px level (H2O2-damaged HUVECs [7]; peptide 200 μM for 8 h) was 44.69 ± 2.09 U/mg prot.

In the case of MLVFAV, the “IC50 on ACE” value (ACE; ACEi peptide from Katsuwonus pelamis) is given as 2360 µg/mL.

With TP6, Ile-Cys-Tyr (ICY) (peptide) the ACEi activity (IC50): inhibition of ACE hydrolysis of FAPGG, absorbance at 340 nm, 37°C, pH 8.3 [8] was 0.48 mg/mL.

For `CC(C)C[C@H](N)C(=O)N[C@@H](CO)C(=O)N[C@@H](Cc1ccccc1)C(=O)N[C@@H](CCCNC(=N)N)C(=O)O` [TP7, Leu-Ser-Phe-Arg] (H-LSFR-OH), the “toxicity to HUVECs (in words)” value (HUVECs [5]) was “no significant toxicity”, the NO level (HUVECs [3]; [9]) was 35.18 ± 1.2 μmol/gprot and the NO level (HUVECs [3]; peptide 200 μM) was 45.91 ± 1.68 μmol/gprot. For the same molecule, the ET-1 level (HUVECs [4]; [9]) was 110.36 ± 1.76 pg/mL, the ET-1 level (HUVECs [4]; peptide 200 μM) was 101.49 ± 2.05 pg/mL and the “cell viability of H2O2-damaged HUVECs” value (H2O2-damaged HUVECs [1]; 8 h, 200 μM) was 59.15 ± 2.81%. For the same molecule, the MDA level (H2O2-damaged HUVECs [2]; peptide 200 μM for 8 h) was 20.68 ± 1.06 nmol/mg prot, the SOD level (H2O2-damaged HUVECs [6]; peptide 100 μM for 8 h) was 141.79 ± 3.96 U/mg prot and the SOD level (H2O2-damaged HUVECs [6]; peptide 200 μM for 8 h) was 158.79 ± 5.93 U/mg prot. For the same molecule, the GSH-Px level (H2O2-damaged HUVECs [7]; peptide 100 μM for 8 h) was 35.61 ± 1.23 U/mg prot and the GSH-Px level (H2O2-damaged HUVECs [7]; peptide 200 μM for 8 h) was 40.93 ± 2.15 U/mg prot.

In the case of `CC[C@H](C)[C@H](N)C(=O)N[C@@H](CS)C(=O)N[C@@H](Cc1ccc(O)cc1)C(=O)O` [TP6, Ile-Cys-Tyr] (H-Ile-Cys-Tyr-OH), the NO level (HUVECs [3]; [9]) is reported as 42.21 ± 2.66 μmol/gprot, the NO level (HUVECs [3]; peptide 200 μM) is reported as 50.63 ± 1.95 μmol/gprot and the ET-1 level (HUVECs [4]; [9]) is reported as 105.18 ± 3.29 pg/mL. For the same molecule, the ET-1 level (HUVECs [4]; peptide 200 μM) was 92.57 ± 2.68 pg/mL, the “cell viability of H2O2-damaged HUVECs” value (H2O2-damaged HUVECs [1]; 8 h, 200 μM) was 69.76 ± 3.06% and the MDA level (H2O2-damaged HUVECs [2]; peptide 200 μM for 8 h) was 17.08 ± 0.96 nmol/mg prot. It also gave an SOD level (H2O2-damaged HUVECs [6]; peptide 100 μM for 8 h) of 168.77 ± 5.32 U/mg prot, an SOD level (H2O2-damaged HUVECs [6]; peptide 200 μM for 8 h) of 184.06 ± 7.19 U/mg prot and a GSH-Px level (H2O2-damaged HUVECs [7]; peptide 100 μM for 8 h) of 42.69 ± 1.32 U/mg prot. It also gave a GSH-Px level (H2O2-damaged HUVECs [7]; peptide 200 μM for 8 h) of 51.28 ± 3.16 U/mg prot.

Work on LSFR [TP7, Leu-Ser-Phe-Arg (LSFR)] yielded an ACEi activity (IC50): inhibition of ACE hydrolysis of FAPGG, absorbance at 340 nm, 37°C, pH 8.3 [8] of 0.59 mg/mL.

IYSP [TP10, Ile-Tyr-Ser-Pro (IYSP)] showed an ACEi activity (IC50): inhibition of ACE hydrolysis of FAPGG, absorbance at 340 nm, 37°C, pH 8.3 [8] of 0.76 mg/mL.
